Laboratory results: US20230150922A1, “Fluorinated Derivatives of Gabapentin and Methods of Use Thereof” (The General Hospital Corporation, priority 2020, published 2023)
Where two headings read alike, the source gives them in different places.

What was measured:
PET imaging of mice = conditions: FIG. 3F
Description: microPET/CT: mice and rats were anesthetized with isoflurane and positioned in the bed of a microPET/CT instrument. […] Animals were imaged using dynamic PET from 0 to 120 min to provide greatest contrast.
Data analysis: PET images were reconstructed using the scanner software and a rat brain atlas automatically fitted to the data using VivoQuant. Time activity curves (TACs) were extracted for multiple brain regions and spinal cord segments (lumbar, thoracic and cervical cord).

[1] = cited from earlier work; for patients with decreases in self-reported pain: oral
[2] = PET imaging in rhesus macaques, baseline and gabapentin blocking scan; conditions: for brain penetration by PET: ~5 mCi i.v.; for specific (displaceable) binding in brain by PET: coinjection of gabapentin (5 mg/kg)
Excerpt: General imaging procedure: The rhesus monkey was sedated by intramuscular injection of ketamine in its housing facility. Following sedation, the animal was intubated and placed inside a primate transport cart. The animal was transported to the scanner room and laid on the scanner bed in supine position. […] Vital signs including heart rate, respiratory rate, SpO2, exhaled CO2, blood pressure and temperature were continuously monitored for the duration of the scan. One intravenous catheter was placed in the saphenous vein for administration of the tracer. One intraarterial catheter was placed in the posterior tibial artery for blood sampling. […] Selected plasma samples were analyzed for radiometabolites using radioHPLC. MRI was coregistered to the PET/CT and TACs extracted for each brain region defined on an MR atlas.
Study design: We scanned two male rhesus macaques. Each monkey was scanned two times. In the first session, we performed 3h dynamic scans (baseline) of each monkey. On the second session, the monkey underwent a blocking scan with coinjection of gabapentin (5 mg/kg).
Data analysis: Pharmacokinetic modeling using metabolite-corrected arterial input function was performed. Volume of distribution (VT), binding potential (BP) other parameters were calculated.

With `NC[C@]1(CC(=O)O)CC[C@@H](F)CC1` [trans-4F-GBP] the “brain entry by PET” value (PET imaging of mice) was “get into the brain”.
In the case of `NCC1(CC(=O)O)CCCCC1` [gabapentin], the “patients with decreases in self-reported pain” value ([1]; diabetic neuropathy) is given as 52%, the “patients with decreases in self-reported pain” value ([1]; postherpetic neuralgia) is given as 46% and the “subjects with reduction in facial pain” value ([1]; trigeminal neuralgia, 43 out of 92 subjects) is given as 46%.
In the case of `NCC1(CC(=O)O)CCC([18F])CC1` (stereo not drawn) [trans-[^18F]4F-GBP, trans-[^18F]4-fluoro-gabapentin], the “brain penetration by PET” value [2] is reported as “significant brain penetration”.
With `NCC1(CC(=O)O)CCC(F)CC1` (stereo not drawn) [cis-4F-GBP] the “brain entry by PET” value (PET imaging of mice) was “get into the brain”.
In the case of `NC[C@]1(CC(=O)O)CC[C@H]([18F])CC1` [cis-[^18F]4F-GBP, cis-[^18F]4-fluoro-gabapentin], the “specific (displaceable) binding in brain by PET” value [2] is reported as “clear specific (displaceable) binding”, the “specific (displaceable) binding in brain by PET” value ([2]; listed as cis isomer) is reported as “partial displacement” and the “brain penetration by PET” value [2] is reported as “significant brain penetration”.
